In brackets after ≈: the same amount, converted by molar mass.
Columns and labels:
[1] = system: Staphylococcus aureus Londres; assay: bacteriostatic activity (MIC); type: cell-based; details: read-out: CMI (concentration minimale inhibitrice)
Experimental: (§1) Les essais pharmaceutiques qui ont été mis en oeuvre avec les produits des exemples 1 et 4, ont été résumés ci-après : • 1°/ essais avec l'exemple 1 • a/ activité bactériostatique L' α-(2-formyl-3-méthyl-cyclopentyl)-acétal- déhyde inhibe les bactéries Gram (+) et Gram (-). Les CMI (concentration minimale inhibitrice) sont les suivantes : 0,75 mg/ml sur Staphylococcus aureus Londres, 1,2 mg/ml sur Escherichia coli, et 1,5 mg/ml sur Proteus • b/ activité antispasmodique : Les DE-50 du produit de l'exemple 1 ont été déterminés • (i) in vitro sur iléon isolé de cobaye vis à vis de l'histamine : DE - 50 = 50 γ/ml; • (ii) in vivo sur l'animal vivant selon la méthode de KONZETT & ROESLLER : DE - 50 = 2,6 mg/kg par administration i.v. • c/ activité antianaphylactique : Des cobayes mâles sont sensibilisés par deux injections de 0,5 ml d'une solution d'albumine à 2 g/1, à deux jours d'intervalle. Quatre semaines aprës,le choc anaphylactique mortel est provoqué par injection i.v. de 0,2 ml d'une solution aqueuse d'ovalbumine à 2 g/1. Les produits à tester sont administrés 30 mn avant (administration i.p.) ou en même temps (administration i.v.) que l'injection provoquant ledit choc anaphylactique. Les résultats sont donnés dans le tableau I pour le produit de l'exemple 1 et la Prométhazine en tant que produit de référence : [formula] • 2°/ essais avec le produit de l'exemple 4 (constitué par un mélange de 87 % en poids d'isomère "cis-trans" et 13 % en poids d'isomère "trans-cis). • a/ activité bactériostatigue : Le produit de l'exemple 4 inhibe les bactéries Gram (+) et Gram (-). Ses CMI sont les suivantes : • 1,5 mg/m sur Staphylococcus aureus, Londres • 1 mg/ml sur Escherichia coli (souche 548) • 1,75 mg/ml sur Proteus vulgaris (souche 1557) • 2,5 mg/ml sur Klebsiella pneumoniae (souche 433), • 1 mg/ml sur Salmonella typhi murium (souche IP), • 1,5 mg/ml sur Staphylococcus aureus (souche 634), • 1,25 mg/ml sur Streptococcus (souche 1178) • 1,25 mg/ml sur Bacillus substilis, (les souches 548, 1557, 433, 634, et 1178 étant celles du catalogue de la collection du "Centre International de Distribution de Souches et d'Information sur les Types Microbiens" de . Lausanne, et la souche "IP" provenant de l'Institut Pasteur de Paris. • b/ activité bactéricide Le produit de l'exemple 4 détruit les bactéries Gram (+) et Gram (-). Ses CMB (concentration minimalebactéricide) déterminées sur milieu solide (quand moins de 0,01% de germes survivent) sont : • 1,75 mg/ml sur Staphylococcus aureus Londres • 1,5 mg/ml sur Escherichia coli (souche 548) • 2 mg/ml sur Proteus vulgaris (souche 1557) • 3 mg/ml sur Klebsiella pneumoniae (souche 433), • 1,25 mg/ml sur Salmonella typhi murium (souche I.P.) • 1,75 mg/ml sur Staphylococcus aureus (souche 634) • 2 mg/ml sur Streptococcus (souche 1178) • 2,5 mg/ml sur Bacillus substilis. • c/ activité bronchospatique Des cobayes mâles ou femelles [20 animaux (pesant 300-500 g) par dose et par produit à tester] sont exposés à un aérosol de l'exemple 4 (50 g/l en solution eau-éthanol) ou de Prométhazine (produit de référence) pendant 10 mn.

Escherichia coli = assay: bacteriostatic activity (MIC); type: cell-based; details: read-out: CMI (concentration minimale inhibitrice)
Experimental: as §1

Proteus = assay: bacteriostatic activity (MIC); type: cell-based; details: read-out: CMI (concentration minimale inhibitrice)
Experimental: as §1

iléon isolé de cobaye = assay: antispasmodic activity in vitro against histamine on isolated ileum; type: cell-based; details: isolated guinea pig ileum, read-out: DE - 50 (the source's name)
Experimental: (§2) Les essais pharmaceutiques qui ont été mis en oeuvre avec les produits des exemples 1 et 4, ont été résumés ci-après : • 1°/ essais avec l'exemple 1 • a/ activité bactériostatique L' α-(2-formyl-3-méthyl-cyclopentyl)-acétal- déhyde inhibe les bactéries Gram (+) et Gram (-). Les CMI (concentration minimale inhibitrice) sont les suivantes : 0,75 mg/ml sur Staphylococcus aureus Londres, 1,2 mg/ml sur Escherichia coli, et 1,5 mg/ml sur Proteus • b/ activité antispasmodique : Les DE-50 du produit de l'exemple 1 ont été déterminés • (i) in vitro sur iléon isolé de cobaye vis à vis de l'histamine : DE - 50 = 50 γ/ml; • (ii) in vivo sur l'animal vivant selon la méthode de KONZETT & ROESLLER : DE - 50 = 2,6 mg/kg par administration i.v. • c/ activité antianaphylactique : Des cobayes mâles sont sensibilisés par deux injections de 0,5 ml d'une solution d'albumine à 2 g/1, à deux jours d'intervalle. Quatre semaines aprës,le choc anaphylactique mortel est provoqué par injection i.v. de 0,2 ml d'une solution aqueuse d'ovalbumine à 2 g/1. Les produits à tester sont administrés 30 mn avant (administration i.p.) ou en même temps (administration i.v.) que l'injection provoquant ledit choc anaphylactique. […]

l'animal vivant = assay: antispasmodic activity in vivo, method of KONZETT & ROESLLER; details: iv, i.v. administration, read-out: DE - 50 (the source's name)
Experimental: as §2

CC1CCC(CC=O)C1C=O (stereo not drawn) [Ex. 1, α-(2-formyl-3-méthyl-cyclopentyl)-acétaldéhyde]
MIC [1]: 750 µg/mL (≈ 4.86 mM)
MIC (Escherichia coli): 1200 µg/mL (≈ 7.78 mM)
MIC (Proteus): 1500 µg/mL (≈ 9.73 mM)
EC50 (iléon isolé de cobaye): 50 µg/mL (≈ 0.324 mM)
ED50 (l'animal vivant): 2.6 mg/kg

Reference: patent EP0006061A1, “Medicinal compound consisting of a derivative of cyclopentyl aldehyde” (INSTITUT DE RECHERCHES CHIMIQUES ET BIOLOGIQUES APPLIQUEES …, priority 1978, dated 1979)
